Structures can show the parent of a compound that is named as a salt. Where two headings read alike, the source gives them in different places.
Experiments:
[1] = Acute oral toxicity in broiler chicks; settings: chicken, in vivo; oral single dose, 9- or 8-day-old chicks; limits given as 59 ±3 mg. and 84 ±7 mg.
[2] = system: Eimeria tenella; assay: Eimeria tenella infection in laboratory chickens; assay type: in vivo; design: Average degree of infection: scale not given here; settings: for Weight gain: uninfected control 100
Method: (A) Eimeria tanella infection in laboratory chickens
(§1) Test method.--This test utilizes ten chickens per drug group. Ten chickens are employed as a weight control and ten chickens as an infected control. The drug is given 48 hours in advance of the infection. One gm. of the test drug is mixed in a mechanical mixer with a sufficient amount of chicken feed to result in the desired dosage. The infection consists of approximately 200,000 oocysts given orally by pipette. The tests lasts for eleven days and then the surviving birds are autopsied and examined for gross lesions in the ceca. The test birds are rated according to the number of survivors and the number of cecal lesions. The results are expressed as average degree of infection (A.D.I.). An average degree of infection of less than 2.5 is considered significant.

[3] = system: Bacillus E; assay: Antimicrobial spectrum, plate assay; assay type: cell-based
Method: (§2) The following table summarizes the antimicrobial spectrum of antibiotic X-537A:
(§3) Antimicrobial spectrum of antibiotic X-537A
(§4) Test organism: Plate units per mg.
(§5) The antibiotic can be prepared by growing the Streptomyces organisms in an aerated submerged culture. This can be done in either a shaken flask or in 50-1,000 gallon stainless steel and iron fermentation tanks. The broths are adjusted to a pH which is about neutral, i.e., 6.5-7.5 prior to be sterilized and are then incubated at slightly elevated temperatures, e.g., about 27° to 30° C., after being inoculated with spore suspensions or vegetative growth. The reaction broth is then filtered and the active material is extracted with a suitable solvent, preferably methanol, n-butanol or butyl acetate. The antibiotic activity is followed by cup-plate agar diffusion assay in which the test organism Bacillus E is employed. In general, the concentration of antibiotic required to produce an inhibition zone of 20-22 mm. in diameter with any of the test organisms is considered to be 1 unit per ml. Whole broths are diluted for assay in 1% phosphate buffer, pH 6.0.

[4] = system: Bacillus cereus; assay: Antimicrobial spectrum, plate assay; assay type: cell-based
Method: as §2, §3, §4, §5

[5] = system: Bacillus mesentericus; assay: Antimicrobial spectrum, plate assay; assay type: cell-based
Method: as §2, §3, §4, §5

[6] = system: Bacillus simplex; assay: Antimicrobial spectrum, plate assay; assay type: cell-based
Method: as §2, §3, §4, §5

[7] = system: Corynebacterium simplex; assay: Antimicrobial spectrum, plate assay; assay type: cell-based
Method: as §2, §3, §4, §5

[8] = system: Mycobacterium phlei; assay: Antimicrobial spectrum, plate assay; assay type: cell-based
Method: as §2, §3, §4, §5

[9] = system: Saccharomyces cerevisiac; assay: Antimicrobial spectrum, plate assay; assay type: cell-based
Method: as §2, §3, §4, §5

[10] = system: Sarcina lutea; assay: Antimicrobial spectrum, plate assay; assay type: cell-based
Method: as §2, §3, §4, §5

[11] = system: Scopulariopsis brevicaulis; assay: Antimicrobial spectrum, plate assay; assay type: cell-based
Method: as §2, §3, §4, §5

[12] = system: Staphylococcus aureus; assay: Antimicrobial spectrum, plate assay; assay type: cell-based
Method: as §2, §3, §4, §5

[13] = system: Gram-negatives; assay: Antimicrobial spectrum, plate assay; assay type: cell-based; settings: Gram-negatives: Pseudomonas acruginosa, Aerobacillus polymyxa, Escherichia coli
Excerpt: as §2, §3, §4
*These were Pseudomonas acruginosa, Aerobacillus polymyxa and Escherichia
as §5

[14] = system: gram-positive bacteria; assay: In vitro antibacterial activity; assay type: cell-based
[15] = system: mycobacteria; assay: In vitro antibacterial activity; assay type: cell-based
[16] = system: gram-negative bacteria; assay: In vitro antibacterial activity; assay type: cell-based
[17] = Toxic dosage in mice; assay type: in vivo; settings: for MTD: mouse, in vivo, read-out: Tolerated dose
Excerpt: The toxic dosage of the antibiotic as tested in mice and designated as the lethal dose is as follows: […]

[18] = Continuous feeding of chicks for nine weeks; assay type: in vivo, chicken
Excerpt: At 0.025%, growth is reduced, feed conversion impaired and 25% mortality occurs.

[19] = system: mixtures of E. tenella, E. necatrix, E. acervulina, E. brunetti, E. maxima, E. mivati; assay: Multiple Eimeria infections in chickens; assay type: in vivo, Eimeria (mixture; in chickens); settings: for Average degree of infection: <2.5 significant; for Weight gain: uninfected control 100
Method: as §1
(B) Multiple Eimeria infections in chickens
Test method.--The test method is the same as for Eimeria tenella. The multiple Eimeria infections tested herein are mixtures of E. tenella, E. necatrix, E. acervulina, E. brunetti, E. maxima, E. mivati infections.

[20] = system: coccidiosis; assay: Control of coccidiosis by medicated feed (general statements); assay type: in vivo, poultry (turkeys, chickens)
Excerpt: Thus, the compositions of this invention not only control coccidiosis, but also, aid in improving the efficiency of conversion of feed to weight gains.
Thus, for example, a feed premix or complete feed contains sufficient active ingredient to provide from about 0.001% to about 0.0125% by weight of the daily feed consumption. Preferably, about 0.00312% to 0.00625% by weight is used. Generally, about 0.005% to about 0.006% of the active ingredient is sufficient for the purpose of controlling and combating coccidiosis.
Even though amounts over 0.00625% are efficacious for combating coccidiosis, this amount is the preferred upper range because of economics, i.e., the cost per unit of effectiveness is lowest within this range. Amounts lower than 0.001% and in some cases lower than 0.003% are not effective for combating coccidiosis. Preferred is a lower limit of 0.00312% because this insures efficaciousness. The most preferred amount, i.e., about 0.005% to about 0.006% by weight of the poultry daily feed consumption is particularly efficacious since it achieves maximum effect with minimum dose. The range of the weight amounts of active antibiotic in the dried unfiltered broth solids which are efficacious for combating coccidiosis is the same as for the crystalline material or its salts. For example, when administered in feed to chicks so as to contain a dosage of 0.003% of active ingredient, the crude dried unfiltered broth results in an average degree of infection of 1.4 while at the same dosage, the sodium salt of the crystalline antibiotic results in an average degree of infection of 1.7. At a dosage equivalent to a concentration of active ingredient of 0.006%, the dried material results in an average degree of infection of 0.0 while the sodium salt of the crystalline antibiotic results in an average degree of infection of 0.2.

Structure (SMILES): CCC(C(=O)C(C)C(O)C(C)CCc1ccc(C)c(O)c1C(=O)O)C1OC(CC)(C2CCC(O)(CC)C(C)O2)CC1C (centres unmarked) [sodium salt of antibiotic X-537A]
- LD50 [1]: 59 to 84 mg/kg
- Average degree of infection ([2]; text: 0.003% of active ingredient in feed to chicks): 1.7
- Average degree of infection ([2]; text: 0.006% of active ingredient in feed to chicks): 0.2

Structure (SMILES): CCC(C(=O)C(C)C(O)C(C)CCc1ccc(C)c(O)c1C(=O)O)C1OC(CC)(C2CCC(O)(CC)C(C)O2)CC1C (centres unmarked) [antibiotic X-537A]
- Antimicrobial activity ([3]; Bacillus E): 800 Plate units per mg.
- Bacillus E assay ([3]; crystalline material from petroleum ether (contained sodium)): 500 E units per mg.
- Bacillus E assay ([3]; free acid recrystallized from ethanol): 800 E units per mg.
- Antimicrobial activity [4]: 120 Plate units per mg.
- Antimicrobial activity [5]: 50 Plate units per mg.
- Antimicrobial activity [6]: 20 Plate units per mg.
- Antimicrobial activity [7]: 20 Plate units per mg.
- Antimicrobial activity [8]: 20 Plate units per mg.
- Antimicrobial activity [9]: 0 Plate units per mg.
- Antimicrobial activity [10]: 500 Plate units per mg.
- Antimicrobial activity [11]: 0 Plate units per mg.
- Antimicrobial activity [12]: 20 Plate units per mg.
- Antimicrobial activity [13]: 0 Plate units per mg.
- Activity in vitro against gram-positive bacteria [14]: active
- Activity in vitro against mycobacteria [15]: active
- Activity in vitro against gram-negative bacteria [16]: inactive
- Lethal dose ([17]; intraperitoneal): 62.5 mg/kg
- MTD ([17]; ip, intraperitoneal): 50 mg/kg
- MTD ([17]; oral): 62.5 mg/kg
- MTD ([17]; sc, subcutaneous): 62.5 mg/kg
- Lethal dose ([17]; oral): 125 mg/kg
- Lethal dose ([17]; subcutaneous): 125 mg/kg
- Feed conversion ([18]; 0.025% in feed): impaired
- Growth ([18]; 0.025% in feed): reduced
- mortality at 1512 h ([18]; chicken, in vivo, po, 0.025% in feed): 25%
- Adverse effects on performance (growth, feed efficiency and mortality) ([18]; up to 0.0125% by weight in feed, nine weeks): no adverse effects
- Percent mortality ([2]; Test I, 0.00312% in feed): 0%
- Average degree of infection ([2]; Test I, 0.00312% in feed, <2.5 significant): 2.2
- Weight gain ([2]; Test I, 0.00312% in feed): 85%
- Percent mortality ([2]; Test I, 0.00625% in feed): 0%
- Average degree of infection ([2]; Test I, 0.00625% in feed, <2.5 significant): 0.4
- Weight gain ([2]; Test I, 0.00625% in feed): 92%
- Percent mortality ([2]; Test II, 0.001% in feed): 15%
- Average degree of infection ([2]; Test II, 0.001% in feed, <2.5 significant): 2.8
- Weight gain ([2]; Test II, 0.001% in feed): 80%
- Percent mortality ([2]; Test II, 0.002% in feed): 15%
- Average degree of infection ([2]; Test II, 0.002% in feed, <2.5 significant): 2.6
- Weight gain ([2]; Test II, 0.002% in feed): 83%
- Percent mortality ([2]; Test II, 0.003% in feed): 5%
- Average degree of infection ([2]; Test II, 0.003% in feed, <2.5 significant): 2.2
- Weight gain ([2]; Test II, 0.003% in feed): 85%
- Percent mortality ([2]; Test II, 0.004% in feed): 15%
- Average degree of infection ([2]; Test II, 0.004% in feed, <2.5 significant): 1.7
- Weight gain ([2]; Test II, 0.004% in feed): 87%
- Percent mortality ([2]; Test II, 0.005% in feed): 5%
- Average degree of infection ([2]; Test II, 0.005% in feed, <2.5 significant): 0.8
- Weight gain ([2]; Test II, 0.005% in feed): 94%
- Percent mortality ([2]; Test II, 0.006% in feed): 0%
- Average degree of infection ([2]; Test II, 0.006% in feed, <2.5 significant): 0.1
- Weight gain ([2]; Test II, 0.006% in feed): 95%
- Average degree of infection ([2]; Test III, 0.003% in feed, <2.5 significant): 1.7
- Weight gain ([2]; Test III, 0.003% in feed): 79%
- Average degree of infection ([2]; Test III, 0.004% in feed, <2.5 significant): 1.1
- Weight gain ([2]; Test III, 0.004% in feed): 81%
- Average degree of infection ([2]; Test III, 0.005% in feed, <2.5 significant): 0.5
- Weight gain ([2]; Test III, 0.005% in feed): 98%
- Average degree of infection ([2]; Test III, 0.006% in feed, <2.5 significant): 0.2
- Weight gain ([2]; Test III, 0.006% in feed): 97%
- Effectiveness in treatment of coccidiosis ([2]; at the preferred dosages illustrated): effective
- Effect on conversion of feed to weight gain ([2]; used as a coccidiostat): does not substantially adversely affect
- Percent mortality ([19]; 0.00312% in feed): 0%
- Average degree of infection ([19]; 0.00312% in feed): 0.9
- Weight gain ([19]; 0.00312% in feed): 105%
- Percent mortality ([19]; 0.00625% in feed): 0%
- Average degree of infection ([19]; 0.00625% in feed): 0.0
- Weight gain ([19]; 0.00625% in feed): 108%
- Efficiency of conversion of feed to weight gain ([19]; chickens): greater than expected
- Effectiveness in treating multiple coccidiosis infections ([19]; in vivo): effective
- Effectiveness against coccidiosis ([20]; amounts greater than 0.0125% of feed): effective against coccidiosis, do not generally show improved results over 0.0125%
- Effect on growth, feed efficiency and mortality ([20]; amounts greater than 0.0125% of feed, in some cases): may adversely affect the growth, feed efficiency and mortality
- Effectiveness against coccidiosis ([20]; amounts lower than 0.001% and in some cases lower than 0.003% of feed): not effective
- Toxicity / untoward side effects ([20]; at dosages necessary to control coccidiosis): not toxic and shows no untoward side effects
- Weight of treated fowl compared to controls ([20]; oral, as component of feed): either maintain their weight or actually gain weight
- Control of coccidiosis ([20]; oral, as component of feed, turkeys and chickens): effectively controls the disease
